Earlier results, collected in patent publication US20210267908A1, “PHARMACEUTICAL COMPOSITIONS OF RIVAROXABAN” (MANKIND PHARMA LTD., priority 2020, published 2021).

amount pH-independently soluble in aqueous media (aqueous media at 25° C.): 5-7 mg/L | solubility in organic solvents (organic solvents (e.g. acetone, polyethylene glycol 400)): only slightly soluble | solubility in water and aqueous media (water and aqueous media with pH 1-9): practically insoluble
Compound: O=C(NC[C@H]1CN(c2ccc(N3CCOCC3=O)cc2)C(=O)O1)c1ccc(Cl)s1 [Rivaroxaban, 5-Chloro-N-({(5S)-2-oxo-3-[4-(3-oxo-4-morpholinyl)phenyl]-1,3-oxazolidin-5-yl}methyl)-2-thiophenecarboxamide]
